Laboratory results: patent publication US8242117B2, “5-membered heterocycle-based p38 kinase inhibitors” (Novartis AG, priority 2003, dated 2012)

Target: T1, p38α kinase (Homo sapiens, UniProt Q16539)
T1 construct: purchased Upstate
Test: p38α assay (ADP release coupled to NADH oxidation)
Format: biochemical
Details: 60 min preincubation, 0.15 mM ATP, 20 nM p38α kinase
Method: cDNAs of human p38α and β were cloned by PCR. The α and β cDNAs were subcloned into DEST2 plasmid (Gateway, InVitrogen). His6-p38 fusion protein was expressed in E. coli and purified from bacterial lysates by affinity chromatography using Ni^+2-NTA-agarose. His6-p38 protein was activated by incubating with constitutively active MKK6. Active p38 was separated from MKK6 by affinity chromatography. Constitutively active MKK6 was generated in a manner similar to Raingeaud et al. [Mol. Cell. Biol., 1247-1255 (1996)].
The p38α assay employed is based on measurement of ADP released in the reaction of interest through NADH oxidation obtained by coupling with pyruvate kinase and lactate dehydrogenase reactions. The assays were performed in 384-well UV-plates. The final volume was 25 μL prepared from the addition of 2.5 μL compound dissolved in 10% DMSO, 17.5 μL of assay buffer and 5 μL of ATP. Assay buffer contains the following reagents to give final concentration in the assay: 25 mM HEPES, 20 mM 2-glycerophosphate, pH 7.6, 10 mM MgCl2, 0.1 mM sodium orthovanadate, 0.5 mM phosphoenolpyruvate, 0.12 mM NADH, 3.1 mg/ml LDH, 6.67 mg/ml pyruvate kinase, 0.25 mM peptide substrate, 2 mM DTT, 0.005% Tween 80 and 20 nM p38α kinase from Upstate. Test compounds are preincubated zith p38α kinase for 60 min and the reaction started by addition of ATP to 0.15 mM final concentration. Reaction rates were measured at 340 nm using SpectraMax plate-reading spectrophotometer for 10 min at 37° C. Inhibition data were analyzed by non-linear least-squares regression using SigmaPlot.

T1 sequence (Q16539 whole entry): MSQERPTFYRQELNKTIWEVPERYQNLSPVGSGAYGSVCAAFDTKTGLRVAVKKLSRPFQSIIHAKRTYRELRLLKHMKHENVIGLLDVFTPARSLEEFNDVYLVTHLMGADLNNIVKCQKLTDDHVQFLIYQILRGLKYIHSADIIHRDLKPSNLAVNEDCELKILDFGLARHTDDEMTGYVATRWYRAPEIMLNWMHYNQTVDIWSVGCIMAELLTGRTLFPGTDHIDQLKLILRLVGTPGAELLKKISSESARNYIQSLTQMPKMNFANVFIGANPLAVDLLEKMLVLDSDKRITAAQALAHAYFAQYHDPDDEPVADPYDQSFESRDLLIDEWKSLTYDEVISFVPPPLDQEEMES

| SMILES | IC50 [nM] |
| --- | --- |
| CONC(=O)c1ccc(C)c(-n2ncc(C(=O)c3cccc(I)c3)c2N)c1 [Example 1, 3-[5-Amino-4-(3-iodo-benzoyl)-pyrazol-1-yl]-N-methoxy-4-methyl-benzamide] | < 1000 |
| Cc1ccc(-c2nnc[nH]2)cc1-n1ncc(C(=O)c2ccccc2)c1N [Example 7, {5-amino-1-[2-methyl-5-(4H-[1,2,4]triazol-3-yl)-phenyl]-1H-pyrazol-4-yl}-phenyl-methanone] | < 1000 |
| Cc1ccc(C(=O)NC2CC2)cc1-n1cnc(C(=O)C2CCCCC2)c1N [Example 18, 3-(5-Amino-4-cyclohexanecarbonyl-imidazol-1-yl)-N-cyclopropyl-4-methyl-benzamide] | < 1000 |
| Cc1ccc(C(=O)NC2CC2)cc1-n1cnc(C(=O)C2CCOCC2)c1N [Example 29, 3-[5-Amino-4-(tetrahydro-pyran-4-carbonyl)-imidazol-1-yl]-N-cyclopropyl-4-methyl-benzamide] | < 1000 |
| Cc1ccc(C(=O)NC2CC2)cc1-n1nc(OCCOCc2ccccc2)c(C(=O)c2ccccc2)c1N [Example 33, 3-[5-amino-4-benzoyl-3-(2-benzyloxy-ethoxy)-pyrazol-1-yl]-N-cyclopropyl-4-methyl-benzamide] | < 1000 |
| Cc1ccc(C(=O)NC2CC2)cc1-n1nc(OC2CCN(C(=O)OC(C)(C)C)CC2)c(C(=O)c2ccccc2)c1N [Example 34, 4-[5-amino-4-benzoyl-1-(5-cyclopropylcarbamoyl-2-methyl-phenyl)-1H-pyrazol-3-yloxy]-piperidine-1-carboxylic acid tert-butyl ester] | < 1000 |
| CCOC(=O)c1c(C)nn(-c2cc(C(=O)NC3CC3)ccc2C)c1N [Example 49, 5-Amino-1-(5-cyclopropylcarbamoyl-2-methyl-phenyl)-3-methyl-1H-pyrazole-4-carboxylic acid ethyl ester] | < 1000 |
| CCOC(=O)c1c(OCC(=O)NCc2cccc(Cl)c2)nn(-c2cc(C(=O)NC3CC3)ccc2C)c1N [Example 50, 5-Amino-3-[(3-chloro-benzylcarbamoyl)-methoxy]-1-(5-cyclopropylcarbamoyl-2-methyl-phenyl)-1H-pyrazole-4-carboxylic acid ethyl ester] | < 1000 |
| Cc1ccc(C(=O)NC2CC2)cc1-n1cnc(C(=O)c2ccccn2)c1N [Example 76, 3-[5-Amino-4-(pyridine-2-carbonyl)-imidazol-1-yl]-N-cyclopropyl-4-methyl-benzamide] | < 1000 |
| Cc1ccc(C(=O)NC2CC2)cc1-n1cnc(C(=O)c2ccc3c(c2)OCO3)c1N [Example 87, 3-[5-Amino-4-(benzo[1,3]dioxole-5-carbonyl)-imidazol-1-yl]-N-cyclopropyl-4-methyl-benzamide] | < 1000 |
| Cc1ccc(C(=O)NC2CC2)cc1-n1ncc(C(=O)NC2CCCCC2C)c1N (stereo not shown) [Example 128, 5-Amino-1-(5-cyclopropylcarbamoyl-2-methyl-phenyl)-1H-pyrazole-4-carboxylic acid (2-methyl-cyclohexyl)-amide] | < 1000 |

Now from value to compound:

| IC50 [nM] | SMILES |
| --- | --- |
| < 1000 | CONC(=O)c1ccc(C)c(-n2ncc(C(=O)c3ccccc3)c2N)c1 [Example 2, 3-(5-Amino-4-benzoyl-pyrazol-1-yl)-N-methoxy-4-methyl-benzamide] |
| 1000 to 10000 | Cc1ccc(C(=O)O)cc1-n1ncc(C(=O)c2ccccc2)c1N [Example 3, 3-(5-amino-4-benzoyl-pyrazol-1-yl)-4-methyl-benzoic acid] |
| < 1000 | Cc1ccc(C(=O)NC2CC2)cc1-n1ncc(C(=O)c2ccccc2)c1N [Example 4, 3-(5-amino-4-benzoyl-pyrazol-1-yl)-N-cyclopropyl-4-methyl-benzamide] |
| 1000 to 10000 | Cc1ccc(C(=O)O)cc1-n1ncc(C(=O)c2cccc(I)c2)c1N [Example 5, 3-[5-amino-4-(3-iodo-benzoyl)-pyrazol-1-yl]-4-methyl-benzoic acid] |
| < 1000 | Cc1ccc(C(=O)NC2CC2)cc1-n1ncc(C(=O)c2cccc(I)c2)c1N [Example 6, 3-[5-amino-4-(3-iodo-benzoyl)-pyrazol-1-yl]-N-cyclopropyl-4-methyl-benzamide] |
| < 1000 | Cc1ccc(C(=O)NC2CC2)cc1-n1ncc(C(=O)c2cccc(C3OCCO3)c2)c1N [Example 8, 3-[5-amino-4-(3-[1,3]dioxolan-2-yl-benzoyl)-pyrazol-1-yl]-N-cyclopropyl-4-methyl-benzamide] |
| < 1000 | Cc1ccc(C(=O)NC2CC2)cc1-n1ncc(C(=O)c2cccc(C=O)c2)c1N [Example 9, 3-[5-amino-4-(3-formyl-benzoyl)-pyrazol-1-yl]-N-cyclopropyl-4-methyl-benzamide] |
| < 1000 | Cc1ccc(C(=O)NC2CC2)cc1-n1ncc(C(=O)c2cccc(CO)c2)c1N [Example 10, 3-[5-amino-4-(3-hydroxymethyl-benzoyl)-pyrazol-1-yl]-N-cyclopropyl-4-methyl-benzamide] |
| < 1000 | COc1nn(-c2cc(C(=O)NC3CC3)ccc2C)c(N)c1C(=O)c1ccccc1 [Example 30, 3-(5-amino-4-benzoyl-3-methoxy-pyrazol-1-yl)-N-cyclopropyl-4-methyl-benzamide] |
| < 1000 | CCOC(=O)c1cnn(-c2cc(C(=O)NC3CC3)ccc2C)c1N [Example 48, 5-Amino-1-(5-cyclopropylcarbamoyl-2-methyl-phenyl)-1H-pyrazole-4-carboxylic acid ethyl ester] |
| < 1000 | Cc1ccc(C(=O)NC2CC2)cc1-n1ncc(C(=O)c2cccc(C#N)c2)c1N [Example 52, 3-[5-Amino-4-(3-cyanobenzoyl)-pyrazol-1-yl]-N-cyclopropyl-4-methylbenzamide] |
| < 1000 | Cc1ccc(C(=O)NC2CC2)cc1-n1ncc(C(=O)c2cccc(-c3nnco3)c2)c1N [Example 53, 3-[5-Amino-4-(3-[1,3,4]oxadiazol-2-yl-benzoyl)-pyrazol-1-yl]-N-cyclopropyl-4-methylbenzamide] |
| < 1000 | Cc1ccc(C(=O)NC2CC2)cc1-n1ncc(C(=O)NC2CCc3ccccc32)c1N (stereo not shown) [Example 135, 5-Amino-1-(5-cyclopropylcarbamoyl-2-methyl-phenyl)-1H-pyrazole-4-carboxylic acid indan-1-ylamide] |
| < 1000 | Cc1ccc(C(=O)NC2CC2)cc1-n1ncc(C(=O)c2cccc(OCC(O)CO)c2)c1N (stereo not shown) [Example 171, 3-{5-Amino-4-[3-(2,3-dihydroxy-propoxy)-benzoyl]-pyrazol-1-yl}-N-cyclopropyl-4-methylbenzamide] |
